What was measured:
[1] = test system: HCV Genotype 1A Replicon; assay: Replicon assay, genotype 1a subgenomic replicon, luciferase readout; assay type: cell-based; conditions: Hepatitis C virus, 48 h, Table 3; luciferase activity after 48 hours
Outline: (§1)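 EC50 values came from four-parameter logistic fits of 10-point dose responses (3–4-fold steps, final 0.03–50 μM, 0.5–1% DMSO), normalized against no-compound and no-cell controls. Firefly luciferase was read 48 h after plating 0.5×10^4 replicon cells/well, 1b ET or 1a Apath-derived line.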

[2] = test system: HCV Genotype 1B Replicon; assay: Replicon assay, genotype 1b subgenomic replicon (ET cell line), luciferase readout; assay type: cell-based; conditions: Hepatitis C virus, 48 h, Table 3; luciferase activity after 48 hours
Outline: as §1

| SMILES | EC50 [1] | EC50 [2] |
| --- | --- | --- |
| O=C1CN(C2CCN(C(=O)c3nc4c(C(F)(F)F)cc(-c5cn[nH]c5)cn4c3Cl)CC2)C(=O)N1 [Compound 172, 1-(1-{[3-chloro-6-(1H-pyrazol-4-yl)-8-(trifluoromethyl)imidazo[1,2-a]pyridin-2-yl]carbonyl}-4-piperidinyl)-2,4-imidazolidinedione] | 3210 nM | 3760 nM |
| CN1CCN(C2CCN(C(=O)c3nc4c(C(F)(F)F)cc(-c5ccoc5)cn4c3Cl)CC2)C1=O [Compound 173, 1-(1-{[3-chloro-6-(3-furanyl)-8-(trifluoromethyl)imidazo[1,2-a]pyridin-2-yl]carbonyl}-4-piperidinyl)-3-methyl-2-imidazolidinone] | 750 nM | 480 nM |
| O=C(c1nc2c(C(F)(F)F)cc(-c3cn[nH]c3)cn2c1Cl)N1CCC(N2C(=O)CNC2=O)CC1 [Compound 174, 3-(1-{[3-chloro-6-(1H-pyrazol-4-yl)-8-(trifluoromethyl)imidazo[1,2-a]pyridin-2-yl]carbonyl}-4-piperidinyl)-2,4-imidazolidinedione] | 25100 nM | 2290 nM |
| O=C(c1nc2c(C(F)(F)F)cc(-c3ccoc3)cn2c1Cl)N1CCC(N2C(=O)CNC2=O)CC1 [Compound 175, 3-(1-{[3-chloro-6-(3-furanyl)-8-(trifluoromethyl)imidazo[1,2-a]pyridin-2-yl]carbonyl}-4-piperidinyl)-2,4-imidazolidinedione] | 2570 nM | 140 nM |
| CC1(C)COC(=O)N1C1CCN(C(=O)c2nc3c(C(F)(F)F)cc(-c4ccoc4)cn3c2Cl)CC1 [Compound 176, 3-(1-{[3-chloro-6-(3-furanyl)-8-(trifluoromethyl)imidazo[1,2-a]pyridin-2-yl]carbonyl}-4-piperidinyl)-4,4-dimethyl-1,3-oxazolidin-2-one] | ≥ 50100 nM | ≥ 50100 nM |
| CC1(C)COC(=O)N1C1CCN(C(=O)c2nc3c(C(F)(F)F)cc(-c4cn[nH]c4)cn3c2Cl)CC1 [Compound 177, 3-(1-{[3-chloro-6-(1H-pyrazol-4-yl)-8-(trifluoromethyl)imidazo[1,2-a]pyridin-2-yl]carbonyl}-4-piperidinyl)-4,4-dimethyl-1,3-oxazolidin-2-one] | ≥ 50100 nM | ≥ 50100 nM |
| O=C(c1nc2c(C(F)(F)F)cc(-c3ccoc3)cn2c1Cl)N1CCC(N2C(=O)COC2=O)CC1 [Compound 178, 3-(1-{[3-chloro-6-(3-furanyl)-8-(trifluoromethyl)imidazo[1,2-a]pyridin-2-yl]carbonyl}-4-piperidinyl)-1,3-oxazolidine-2,4-dione] | 20 nM | 30 nM |
| O=C(c1nc2c(C(F)(F)F)cc(-c3cn[nH]c3)cn2c1Cl)N1CCC(N2C(=O)COC2=O)CC1 [Compound 179, 3-(1-{[3-chloro-6-(1H-pyrazol-4-yl)-8-(trifluoromethyl)imidazo[1,2-a]pyridin-2-yl]carbonyl}-4-piperidinyl)-1,3-oxazolidine-2,4-dione] | 60 nM | 360 nM |
| C[C@H]1COC(=O)N1C1CCN(C(=O)c2nc3c(C(F)(F)F)cc(-c4ccoc4)cn3c2Cl)CC1 [Compound 180, (4S)-3-(1-{[3-chloro-6-(3-furanyl)-8-(trifluoromethyl)imidazo[1,2-a]pyridin-2-yl]carbonyl}-4-piperidinyl)-4-methyl-1,3-oxazolidin-2-one] | 1620 nM | 2850 nM |
| CC1(C)CN(C2CCN(C(=O)c3nc4c(C(F)(F)F)cc(-c5ccoc5)cn4c3Cl)CC2)C(=O)O1 [Compound 181, 3-(1-{[3-chloro-6-(3-furanyl)-8-(trifluoromethyl)imidazo[1,2-a]pyridin-2-yl]carbonyl}-4-piperidinyl)-5,5-dimethyl-1,3-oxazolidin-2-one] | 6530 nM | 7080 nM |
| C[C@@H]1COC(=O)N1C1CCN(C(=O)c2nc3c(C(F)(F)F)cc(-c4ccoc4)cn3c2Cl)CC1 [Compound 182, (4R)-3-(1-{[3-chloro-6-(3-furanyl)-8-(trifluoromethyl)imidazo[1,2-a]pyridin-2-yl]carbonyl}-4-piperidinyl)-4-methyl-1,3-oxazolidin-2-one] | 130 nM | 660 nM |
| CC1(N2CCOC2=O)CCN(C(=O)c2nc3c(C(F)(F)F)cc(-c4ccoc4)cn3c2Cl)CC1 [Compound 183, 3-(1-{[3-chloro-6-(3-furanyl)-8-(trifluoromethyl)imidazo[1,2-a]pyridin-2-yl]carbonyl}-4-methyl-4-piperidinyl)-1,3-oxazolidin-2-one] | ≥ 5010 nM | 4470 nM |
| C[C@H]1CN(C2CCN(C(=O)c3nc4c(C(F)(F)F)cc(-c5ccoc5)cn4c3Cl)CC2)C(=O)O1 [Compound 184, (5S)-3-(1-{[3-chloro-6-(3-furanyl)-8-(trifluoromethyl)imidazo[1,2-a]pyridin-2-yl]carbonyl}-4-piperidinyl)-5-methyl-1,3-oxazolidin-2-one] | 220 nM | 80 nM |
| C[C@@H]1CN(C2CCN(C(=O)c3nc4c(C(F)(F)F)cc(-c5ccoc5)cn4c3Cl)CC2)C(=O)O1 [Compound 185, (5R)-3-(1-{[3-chloro-6-(3-furanyl)-8-(trifluoromethyl)imidazo[1,2-a]pyridin-2-yl]carbonyl}-4-piperidinyl)-5-methyl-1,3-oxazolidin-2-one] | 1480 nM | 1550 nM |
| O=C(c1nc2c(C(F)(F)F)cc(-c3ccoc3)cn2c1Cl)N1CCC(n2ccoc2=O)CC1 [Compound 186, 3-(1-{[3-chloro-6-(3-furanyl)-8-(trifluoromethyl)imidazo[1,2-a]pyridin-2-yl]carbonyl}-4-piperidinyl)-1,3-oxazol-2(3H)-one] | 10 nM | 20 nM |
| Nc1cc(C(F)(F)F)c2nc(C(=O)N3CCC(N4CCOC4=O)CC3)c(Cl)n2c1 [Compound 187, 3-(1-{[6-amino-3-chloro-8-(trifluoromethyl)imidazo[1,2-a]pyridin-2-yl]carbonyl}-4-piperidinyl)-1,3-oxazolidin-2-one] | 4680 nM | 1620 nM |
| C[C@@H]1OC(=O)N(C2CCN(C(=O)c3nc4c(C(F)(F)F)cc(-c5ccoc5)cn4c3Cl)CC2)C1=O [Compound 188, (5S)-3-(1-{[3-chloro-6-(3-furanyl)-8-(trifluoromethyl)imidazo[1,2-a]pyridin-2-yl]carbonyl}-4-piperidinyl)-5-methyl-1,3-oxazolidine-2,4-dione] | 190 nM | 60 nM |
| C[C@@H]1OC(=O)N(C2CCN(C(=O)c3nc4c(C(F)(F)F)cc(C5CC5)cn4c3Cl)CC2)C1=O [Compound 189, (5S)-3-(1-{[3-chloro-6-cyclopropyl-8-(trifluoromethyl)imidazo[1,2-a]pyridin-2-yl]carbonyl}-4-piperidinyl)-5-methyl-1,3-oxazolidine-2,4-dione] | 220 nM | 30 nM |
| C[C@@H]1OC(=O)N(C2CCN(C(=O)c3nc4c(C(F)(F)F)cc(Br)cn4c3Cl)CC2)C1=O [Compound 190, (5S)-3-(1-{[6-bromo-3-chloro-8-(trifluoromethyl)imidazo[1,2-a]pyridin-2-yl]carbonyl}-4-piperidinyl)-5-methyl-1,3-oxazolidine-2,4-dione] | 1500 nM | 70 nM |
| C[C@H]1OC(=O)N(C2CCN(C(=O)c3nc4c(C(F)(F)F)cc(-c5ccoc5)cn4c3Cl)CC2)C1=O [Compound 191, (5R)-3-(1-{[3-chloro-6-(3-furanyl)-8-(trifluoromethyl)imidazo[1,2-a]pyridin-2-yl]carbonyl}-4-piperidinyl)-5-methyl-1,3-oxazolidine-2,4-dione] | 210 nM | 40 nM |

From US20100272680A1, “Piperidinyl Cyclic Amido Antiviral Agents” (priority 2009, published 2010)
